The text below walks through data of patent US20230183239A1, “ECTONUCLEOTIDE PYROPHOSPHATASE-PHOSPHODIESTERASE 1 (ENPP-1) INHIBITORS AND USES THEREOF” (AbbVie Inc., priority 2017, published 2023).

The structures appear in SMILES notation. Where two headings read alike, the source gives them in different places. Some results are limits rather than exact numbers.

Broadly, the inhibition is how much of the control response was suppressed. For orientation: Ki means a measure of affinity in units of concentration, obtained from inhibition or displacement.

What all share (type): biochemical
Assay [1] addresses T1, ENPP1 (Homo sapiens, UniProt P22413).
T1 sequence (P22413 1-925): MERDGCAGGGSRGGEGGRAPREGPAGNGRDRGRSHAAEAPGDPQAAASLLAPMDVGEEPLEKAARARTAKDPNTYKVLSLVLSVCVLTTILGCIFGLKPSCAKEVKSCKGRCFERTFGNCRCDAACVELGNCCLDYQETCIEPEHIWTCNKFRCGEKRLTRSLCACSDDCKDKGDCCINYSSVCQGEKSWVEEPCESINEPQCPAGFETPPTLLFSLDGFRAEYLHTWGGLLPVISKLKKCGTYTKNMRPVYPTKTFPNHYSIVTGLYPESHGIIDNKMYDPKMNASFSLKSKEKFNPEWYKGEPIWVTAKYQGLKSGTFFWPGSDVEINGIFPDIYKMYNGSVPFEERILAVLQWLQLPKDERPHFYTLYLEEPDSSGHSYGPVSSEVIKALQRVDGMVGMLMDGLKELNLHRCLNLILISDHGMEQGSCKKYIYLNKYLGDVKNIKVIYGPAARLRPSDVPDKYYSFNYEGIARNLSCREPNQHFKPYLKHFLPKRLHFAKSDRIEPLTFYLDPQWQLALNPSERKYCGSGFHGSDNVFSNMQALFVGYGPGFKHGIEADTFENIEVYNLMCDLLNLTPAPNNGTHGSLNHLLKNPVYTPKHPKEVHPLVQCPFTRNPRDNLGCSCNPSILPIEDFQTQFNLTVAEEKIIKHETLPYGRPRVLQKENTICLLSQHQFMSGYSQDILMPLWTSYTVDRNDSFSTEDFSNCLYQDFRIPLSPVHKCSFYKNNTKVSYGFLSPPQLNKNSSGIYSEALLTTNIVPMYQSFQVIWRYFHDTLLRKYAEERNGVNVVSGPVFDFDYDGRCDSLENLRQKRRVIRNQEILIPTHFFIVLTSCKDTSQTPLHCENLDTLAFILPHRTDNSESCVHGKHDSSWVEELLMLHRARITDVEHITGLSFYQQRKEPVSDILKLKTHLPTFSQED
The assay is described as follows: ENPP1 enzyme assay with cGAMP substrate (AMP-Glo). Also noted: purchased R&D Systems. The note with it: for inhibition at 1 µM: read-out: cGAMP: % Inhibition at 1 µM. From the text: Example B1: ENPP1 Enzyme Assay With cGAMP Substrate
Ectonucleotide pyrophosphatase/phosphodiesterase 1 (ENPP-1) is a transmembrane glycoprotein that hydrolyzes nucleotides and nucleotide derivatives with the formation of nucleoside-5’-monophosphates. […] The 5’-AMP formed from the reaction is detected using the AMP-Glo® Kit (Promega). The assay kit contains two reagents. The first reagent terminates the enzymatic reaction, removes ATP (using adenylyl cyclase), and converts 5’-AMP produced into ADP (using polyphosphate: AMP phosphotransferase). The second reagent converts ADP to ATP (using adenylate kinase) and generates light from ATP using the luciferin/luciferase reaction.
Different concentrations of ENPP1 inhibitors are pre-incubated with 5 ng/well of human ENPP-1 enzyme (R&D Systems) for 15 minutes at 37° C. The reaction is initiated by adding 20 µM 2’3’-cGAMP and incubating for 30 minutes at 37° C. The final assay reaction mixture contains a buffer of 50 mM Tris pH 8.0, 250 mM NaCl, 0.5 mM CaCl2, 1 µM ZnCl2 and 1% DMSO. At the end of the incubation, the reaction is stopped by adding 12 µl of AMP-Glo reagent-1 and mixing the reaction uniformly for 5 minutes, followed by incubation at room temperature for one hour. Then 25 µl of AMP Glo reagent-2 is added to the reaction, mixed uniformly with a pipette, and incubated at room temperature for one hour to convert the ADP formed from reagent-1 to ATP and light. The generated light is measured in a Perkin Elmer Victor® instrument.
The IC50 values for percent inhibition versus compound concentration are determined by fitting the inhibition curves using a four-parameter variable slope model in GraphPad Prism® software. Ki values are derived from the IC50 values using the Cheng-Prusoff equation: […]

Assay [2] has as its target T1, ENPP1. The assay is described as follows: Indirect quantitation of 2',3'-cGAMP hydrolysis (AMP-Glo Assay kit).
Assay [3] has as its target T1, ENPP1. The assay is described as follows: Substrate selectivity ratio, inhibition of cGAMP hydrolysis versus ATP hydrolysis. To be noted: ratio Ki AMP-pNP / Ki cGAMP. The protocol:
The selectivity ratios for inhibition of cGAMP hydrolysis versus ATP hydrolysis were then calculated as follows: […]

The target of assay [4] is T1, ENPP1. In words: ENPP1 enzyme assay with AMP-pNP substrate (hydrolysis of ATP analog). The method in brief:
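Human recombinant ENPP1 (60 ng/well) with 300 µM AMP-pNP in 50 mM Tris-HCl pH 8.5, 250 mM NaCl, 0.5 mM CaCl2, 1 µM ZnCl2, 0.1% DMSO, 20 min at 37 °C.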

The mark [5] stands for this setting: cGAMP substrate, Ki from IC50 by Cheng-Prusoff, read-out: ENPP1 Inhibition -cGAMP: Ki.
Setting [6] is: AMP-pNP substrate (ATP analog), Ki from IC50 by Cheng-Prusoff, read-out: ENPP1 Inhibition _AMP-pNP: Ki.

Regarding `COc1cccc(C(=O)N2CCC(CCNS(N)(=O)=O)CC2)c1` [Example 48, N-(2-(1-(3-methoxybenzoyl)piperidin-4-yl)ethyl)sulfamide], the inhibition at 1 µM in assay [1] (1 µM compound, cGAMP substrate) fell in the range of 25 to 50%. In addition, in assay [2] (setting [5]), the Ki is more than 1000 nM.
Regarding `COc1cc2ncnc(N3CCN(CCNS(N)(=O)=O)CC3)c2cc1OC` [Example 40, N-(2-(4-(6,7-dimethoxyquinazolin-4-yl)piperazin-1-yl)ethyl)sulfamide], the “Substrate Selectivity: Ki_AMP-pNP/Ki_cGAMP” value (“Substrate Selectivity” for short) in assay [3] was found to be 24.1. In addition, the inhibition at 1 µM in assay [1] is more than 75%. In addition, the Ki is less than 100 nM in assay [2] and 100 to 1000 nM in assay [4].
On to `COc1cc2ncnc(N3CCC(NS(N)(=O)=O)CC3)c2cc1OC` [Example 51, N-(1-(6,7-dimethoxyquinazolin-4-yl)piperidin-4-yl)sulfamide], for which, in assay [1] (1 µM compound, cGAMP substrate), the inhibition at 1 µM is more than 75%. The Ki in assay [1] (cGAMP substrate, Ki from IC50 by Cheng-Prusoff, read-out: cGAMP: Ki) fell in the range of 100 to 1000 nM; in assay [2] (setting [5]), 100 to 1000 nM.
Consider `NS(=O)(=O)NCCC1CCN(c2ncnc3c2cnn3-c2ccccc2)CC1` [Example 26, N-(2-(1-(1-phenyl-1H-pyrazolo[3,4-d]pyrimidin-4-yl)piperidin-4-yl)ethyl)sulfamide], for which the inhibition at 1 µM in assay [1] was less than 25%. In addition, the Ki in assay [2] (setting [5]) is more than 1000 nM.
As to `NS(=O)(=O)NCCC1CCN(c2ccnc(NC(=O)c3cccnc3)n2)CC1` [Example 7, N-(4-(4-(2-(sulfamoylamino)ethyl)piperidin-1-yl)pyrimidin-2-yl)nicotinamide], the inhibition at 1 µM in assay [1] is less than 25%. Besides, the inhibition constant Ki in assay [2] (setting [5]) is more than 1000 nM.
`COc1cc(C(=O)N2CCC(CCNS(N)(=O)=O)CC2)c(N(C)C)cc1OC` [Example 45, N-(2-(1-(2-(dimethylamino)-4,5-dimethoxybenzoyl)piperidin-4-yl)ethyl)sulfamide]: the inhibition at 1 µM in assay [1] (1 µM compound, cGAMP substrate) was less than 25%. Also, in assay [2] (setting [5]), the Ki is more than 1000 nM.
Consider `NS(=O)(=O)NCCC1CCN(c2ccnc(-c3cccnc3)n2)CC1` [Example 14, N-(2-(1-(2-(pyridin-3-yl)pyrimidin-4-yl)piperidin-4-yl)ethyl)sulfamide], for which the inhibition at 1 µM in assay [1] (1 µM compound, cGAMP substrate) was less than 25%. Besides, the inhibition constant Ki in assay [2] (setting [5]) is more than 1000 nM.
`NS(=O)(=O)NCCC1CCN(c2ccnc(Nc3ccccn3)n2)CC1` [Example 11, N-(2-(1-(2-(pyridin-2-ylamino)pyrimidin-4-yl)piperidin-4-yl)ethyl)sulfamide]: the inhibition at 1 µM in assay [1] is less than 25%. Besides, the Ki in assay [2] and in assay [4] was more than 1000 nM in each case.
For the molecule `COc1cc2ccnc(N3CCC(CCNS(N)(=O)=O)CC3)c2cc1OC` [Example 21, N-{2-[1-(6,7-dimethoxyisoquinolin-1-yl)piperidin-4-yl]ethyl}aminosulfonamide], the inhibition at 1 µM in assay [1] lay within 25 to 50%. For the same molecule, the Ki in assay [2] (setting [5]) was more than 1000 nM.
Taken in the same sequence, the figures for `NS(=O)(=O)NCCC1CCN(c2cc(-c3ccc4ncoc4c3)ncn2)CC1` [Example 9, N-(2-(1-(6-(benzo[d]oxazol-6-yl)pyrimidin-4-yl)piperidin-4-yl)ethyl)sulfamide] were less than 25% and more than 1000 nM.
The like results for `NS(=O)(=O)NCCC1CCN(c2ccnc(Nc3ccncc3)n2)CC1` [Example 13, N-(2-(1-(2-(pyridin-4-ylamino)pyrimidin-4-yl)piperidin-4-yl)ethyl)sulfamide] were, in that order, 25 to 50% and more than 1000 nM.
On to `COc1ccc(C(=O)N2CCC(CCNS(N)(=O)=O)CC2)cc1` [Example 49, N-(2-(1-(4-methoxybenzoyl)piperidin-4-yl)ethyl)sulfamide], for which the inhibition at 1 µM in assay [1] (1 µM compound, cGAMP substrate) fell in the range of 25 to 50%. In assay [2] (setting [5]), the Ki is more than 1000 nM.
For the molecule `COc1cc(N)c(C(=O)N2CCC(CCNS(N)(=O)=O)CC2)cc1OC` [Example 46, N-(2-(1-(2-amino-4,5-dimethoxybenzoyl)piperidin-4-yl)ethyl)sulfamide], the inhibition at 1 µM in assay [1] (1 µM compound, cGAMP substrate) is less than 25%. Also, in assay [2] (setting [5]), the Ki was more than 1000 nM.
Turning to `NS(=O)(=O)NCCC1CCN(c2ccnc(Nc3cccnc3)n2)CC1` [Example 12, N-(2-(1-(2-(pyridin-3-ylamino)pyrimidin-4-yl)piperidin-4-yl)ethyl)sulfamide], in assay [1], the inhibition at 1 µM was less than 25%. Besides, in assay [2] (setting [5]), the Ki is more than 1000 nM.
On to `COc1cc2ncnc(N3CCC(CCN(O)C=O)CC3)c2cc1OC` [Example 219, N-(2-(1-(6,7-dimethoxyquinazolin-4-yl)piperidin-4-yl)ethyl)-N-hydroxyformamide], for which the “Substrate Selectivity” value in assay [3] came out at 26.4. Moreover, the Ki was less than 100 nM in assay [2] (setting [5]) and 100 to 1000 nM in assay [4] (setting [6]).
Regarding `COc1cc2nccc(Nc3ccc(CC(=O)NO)cc3)c2cc1OC` [Example 207, 2-(4-((6,7-dimethoxyquinolin-4-yl)amino)phenyl)-N-hydroxyacetamide], the “Substrate Selectivity” value in assay [3] is on record as 36.8. For the same molecule, the inhibition constant (Ki) in assay [2] (setting [5]) and in assay [4] (setting [6]) was less than 100 nM throughout.
`COc1ccc2c(-n3cnc(CNS(N)(=O)=O)c3)ccnc2c1` [Example 385, N-((1-(7-methoxyquinolin-4-yl)-1H-imidazol-4-yl)methyl)sulfamide]: the “Substrate Selectivity” value in assay [3] is more than 44. The Ki in assay [2] (setting [5]) is less than 100 nM; in assay [4] (setting [6]) it was more than 1000 nM.
The like results for `COc1ccc2c(Oc3ccc(S(N)(=O)=O)cc3)c(C)cnc2c1` [Example 359, 4-((7-methoxy-3-methylquinolin-4-yl)oxy)benzene sulfonamide] were, in that order, 54, less than 100 nM and 100 to 1000 nM.
On to `COc1cc2nccc(-n3ccc4cc(NS(N)(=O)=O)ccc43)c2cc1OC` [Example 313, N-(1-(6,7-dimethoxyquinolin-4-yl)-1H-indol-5-yl)sulfamide], for which the “Substrate Selectivity” value in assay [3] was more than 38.8. In addition, the values for the Ki in assay [2] (setting [5]) and in assay [4] (setting [6]) were less than 100 nM and more than 1000 nM, respectively.
